For data set [1], the target named is T1, AADC (aromatic L-amino acid decarboxylase), recombinant (Homo sapiens, UniProt P20711).
T1 construct: gene DDC; recombinant AADC produced in vitro; native homodimer
T1 sequence (P20711 1-480): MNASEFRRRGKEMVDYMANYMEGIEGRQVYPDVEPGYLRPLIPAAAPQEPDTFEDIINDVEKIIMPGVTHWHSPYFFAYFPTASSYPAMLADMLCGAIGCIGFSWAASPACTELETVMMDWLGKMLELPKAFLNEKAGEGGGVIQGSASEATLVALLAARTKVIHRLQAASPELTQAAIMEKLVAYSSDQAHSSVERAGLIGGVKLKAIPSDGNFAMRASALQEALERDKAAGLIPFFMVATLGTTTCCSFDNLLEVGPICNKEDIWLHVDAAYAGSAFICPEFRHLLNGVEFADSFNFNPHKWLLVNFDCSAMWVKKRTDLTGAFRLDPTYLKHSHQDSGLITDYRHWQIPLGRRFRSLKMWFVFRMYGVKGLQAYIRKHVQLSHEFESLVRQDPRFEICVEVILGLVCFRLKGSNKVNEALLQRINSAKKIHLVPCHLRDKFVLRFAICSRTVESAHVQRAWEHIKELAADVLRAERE
Kind of data set: kinetic parameters of recombinant AADC (method in supplement). The format is biochemical. As to conditions: wild-type reference of the C100S comparison; main text does not state whether measured here or taken from earlier work.

The target in data set [2] is T2, AADC (aromatic L-amino acid decarboxylase), recombinant (Homo sapiens, UniProt P20711, C100S).
T2 construct: gene DDC; recombinant AADC produced in vitro; native homodimer
T2 sequence (P20711 1-480 C100S): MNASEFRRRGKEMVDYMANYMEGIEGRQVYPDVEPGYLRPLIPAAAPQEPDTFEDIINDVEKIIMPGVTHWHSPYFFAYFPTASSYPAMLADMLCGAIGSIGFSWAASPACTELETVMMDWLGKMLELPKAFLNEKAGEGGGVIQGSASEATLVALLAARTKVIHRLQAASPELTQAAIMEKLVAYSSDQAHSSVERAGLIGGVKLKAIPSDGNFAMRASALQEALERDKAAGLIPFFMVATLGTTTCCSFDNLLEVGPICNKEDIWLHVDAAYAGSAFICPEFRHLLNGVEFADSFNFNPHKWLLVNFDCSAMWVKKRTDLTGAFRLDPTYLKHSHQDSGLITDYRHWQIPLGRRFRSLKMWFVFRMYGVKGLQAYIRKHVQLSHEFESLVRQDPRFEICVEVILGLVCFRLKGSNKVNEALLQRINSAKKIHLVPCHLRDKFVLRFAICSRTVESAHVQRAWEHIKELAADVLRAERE
Kind of data set: PLP binding affinity of recombinant AADC (method in supplement). From the text: PLP binding affinity of recombinant AADC (method in supplement) on AADC (aromatic L-amino acid decarboxylase), recombinant | with a KD(PLP) consistently lower than previously reported values for AADC variants

Substrate in data set [3]: N[C@@H](Cc1ccc(O)c(O)c1)C(=O)O
The data set can be described thus: kinetic parameters of recombinant AADC (method in supplement). The format is biochemical, Homo sapiens. From the text: kinetic parameters of recombinant AADC (method in supplement) on AADC (aromatic L-amino acid decarboxylase), recombinant | attributed to a slight decrease in L-DOPA affinity (KM)

For the molecule `N[C@@H](Cc1ccc(O)c(O)c1)C(=O)O` [L-DOPA], in data set [1], the KM result is recorded as “catalytic activity (kcat) of AADCC100S was indeed similar to that observed for wild-type”. As a reminder, the Kd is the concentration at which binding is half-saturated. As to `Cc1ncc(COP(=O)(O)O)c(C=O)c1O` [PLP], the dissociation constant (Kd) in data set [2] is 112 ± 14 nM.

B1: AADC (aromatic L-amino acid decarboxylase), recombinant (Homo sapiens; C100S) (protein)
chain: MNASEFRRRGKEMVDYMANYMEGIEGRQVYPDVEPGYLRPLIPAAAPQEPDTFEDIINDVEKIIMPGVTHWHSPYFFAYFPTASSYPAMLADMLCGAIGSIGFSWAASPACTELETVMMDWLGKMLELPKAFLNEKAGEGGGVIQGSASEATLVALLAARTKVIHRLQAASPELTQAAIMEKLVAYSSDQAHSSVERAGLIGGVKLKAIPSDGNFAMRASALQEALERDKAAGLIPFFMVATLGTTTCCSFDNLLEVGPICNKEDIWLHVDAAYAGSAFICPEFRHLLNGVEFADSFNFNPHKWLLVNFDCSAMWVKKRTDLTGAFRLDPTYLKHSHQDSGLITDYRHWQIPLGRRFRSLKMWFVFRMYGVKGLQAYIRKHVQLSHEFESLVRQDPRFEICVEVILGLVCFRLKGSNKVNEALLQRINSAKKIHLVPCHLRDKFVLRFAICSRTVESAHVQRAWEHIKELAADVLRAERE
notes: recombinant AADC produced in vitro; native homodimer
A word on the Km: it is the concentration of substrate that gives half-maximal velocity. By kcat is commonly meant the number of substrate molecules converted per active site and unit of time at saturation. In the case of B1, in data set [3], the Km was determined as 420 ± 100 µM and the kcat came to 6.9 ± 0.6 s⁻¹.

Source of the values: PMC8418346, “Aromatic L-amino acid decarboxylase deficiency: a patient-derived neuronal model for precision therapies” (Brain, 2021).
